# Measurements: patent US12115178B2, “Acylated active agents and methods of their use for the treatment of autoimmune disorders” (Flagship Pioneering Innovations V, Inc., priority 2018, dated 2024)
# Key:
# [1] = tested on: adoptive T-cell transfer mice; assay: Adoptive T-cell transfer study; type: in vivo, CB-17 SCID mice; details: compound 44 100 mg/kg, olsalazine 30 mg/kg, through day 42, compared to the vehicle control
# Text: On study day 0, naïve T-cells were obtained from the spleen of 11 to 12 week-old Balb/C mice using the SCID Cell Separation Protocol with the following labelling scheme; CD4+CD45RB^highCD25− and CD4+CD45RB^lowCD25+ cell (APC CD4 Antibody (100412), FITC CD45RB Antibody (103306), PE CD25 Antibody (101904), from BioLegend, San Diego, CA, and CD4 cell enrichment kit: 19752A, Stemcell Technologies, Cambridge, MA) and the 4×10^5 of CD4^+CD45RB^highCD25− cells were transferred 6-7 weeks old CB-17 SCID mice. Recipient mice were randomized based on their body weight (n=12 mice/group), and received […] of vehicle (0.5% methyl-cellulose) (vehicle control), 0.5 mg per mouse of anti-IL-12 (positive control), 30 mg/kg of olsalazine (positive treatment group), and 100 mg/kg of compound 44 (compound treatment group) through day 42. On day 42, animals were anesthetized with Isoflurane and bled to exsanguination followed by cervical dislocation. The entire colon was removed and the overall efficacy of compound 44 was assessed based on colon length and weight per length. […] Statistical analysis was performed with GraphPad Prism (GraphPad Software). Mann-Whitney U test was used to assess significance between the vehicle control and each treatment group.
# [2] = tested on: Primary Human Peripheral Blood Mononuclear Cells (PBMCs); assay: Inflammatory signals in LPS-treated primary human PBMCs; type: cell-based; details: 100 uM, 24 hours
# Description: Human donor blood (8 mL) was collected in sodium citrate CPT tubes and centrifuged at 1,600×g for 20 minutes at room temperature. Buffy coat containing PBMCs was collected and transferred to a 50 mL conical tube containing 30 mL of RPMI-1640 medium at room temperature (supplemented with penicillin-streptomycin). PBMCs samples were centrifuged at 400×g for 10 minutes at 10° C. The pelleted PBMCs were washed twice in 10 ml of RPMI-1640 medium (supplemented with penicillin-streptomycin), then resuspended in RPMI-1640 medium (supplemented with penicillin-streptomycin, fetal bovine serum, and L-Glutamine). PBMCs were filtered through a 70 micron mesh to remove any cellular debris. […] PBMCs in a 96-well plate were rested for 30 minutes in a 37° C., 5% CO2 incubator, then subsequently treated with 10 μl of indicated compound. After 2 hours 10 μL of LPS (O111:B4) 1 mg/mL was added to test wells. After 24 hours of incubation at 37° C., 5% CO2, 100 μL of cell supernatant was collected and transferred to a 96-well plate (non-tissue treated, flat bottom). The plate was centrifuged at 350×g for 5 minutes at room temperature, and then the clear supernatant transferred to a new 96-well plate (non-tissue treated, flat bottom). The remaining cells were tested for viability using CellTiter-Glo® Luminescent Cell Viability Assay (Promega). The supernatant was analyzed for TNFα, IL-6 and […] Systems), using Luminex Immunoassay Technology (MAGPIX System). Cytokine levels of LPS treated DMSO control samples were set to 100%, and compound treated samples were expressed relative to this (Table 3).
# neutrophil = assay: Neutrophil chemokine production assay; type: cell-based, human; details: 12 h
# Description: A volume 25 mL of human blood was layered over 15 mL of Histopaque®-1077 and centrifuged at 500 g, RT, for 30 min with no break applied to the centrifuge. The PBMC band and Histopaque®-1077 layer were removed leaving behind the bottom red layer which was mixed with 40 mL of 1× red blood cell (RBC) lysis buffer (Sigma-Aldrich) was and split into two 50 mL tubes. The volume for both fractions was brought to 50 mL with RBC lysis buffer, mixed by inversion, and then incubated at RT for 10 min. Solutions were centrifuged at 250 g, for 10 min at RT and the supernatant liquids removed. The reddish pellets were re-suspended in 1 mL of RBC lysis buffer and combined. The cell suspension was incubated for 5 min at RT in RBC lysis buffer. After incubation 45 mL of Hanks Balanced Salt Solution with no calcium, magnesium or phenol red (HBSS−) was added, the cell suspension was spun (250 g for 10 min at RT), and supernatant liquids were removed. The white pellet was re-suspended in 1 mL of HBSS−, and cell counts were determined. The neutrophil cell suspension was brought to a concentration of 1.11e6 cells/mL in RPMI complete (Sigma-Aldrich), and 180 μL of cell suspension was transferred to all wells within a sterile 96-well tissue culture treated plate resulting in 2.0e5 cells/well. […] After incubation, 10 μL of 2 μg/mL LPS solution in RPMI complete was added to each well except for control wells, which received an additional 10 μL of media. Cells were incubated for 12 h (37° C., 5% CO2), after which plates were centrifuged at 250 g, RT, for 5 min and supernatant liquids were obtained and stored at −80° C. until analyzed via Luminex® Multiplex Assay for various chemokines and cytokines. Three data points were acquired from two different blood donors and averaged.
# Caco-2 colonocytes = assay: Human Caco-2 barrier integrity assay (TEER); type: cell-based; details: 48 hours
# Description: At 70-80% confluency, cells were trypsinized and seeded in 0.4 cm^2 transwell collagen I coated membranes with supplemented DMEM in both apical and basolateral compartments. Cells were seeded at a density of 200,000 cells per well and maintained for 10 days to form a polarized barrier with a TransEpithelial […] After 48 hours, TEER readings were taken again and viability was measured by CellTiter 96® AQueous One Solution Cell Proliferation Assay (Promega). The percent change in TEER over the 48 hours was determined and normalized to the 0.1% DMSO control (Table 6).
# AhR = AhR activation in Caco-2 cells through CYP1A1 mRNA expression; details: overnight
# Description: Caco-2 cells from American Type Culture Collection (ATCC) were plated in a sterile tissue culture treated 96-well plate (ThermoFisher) at […], and grown overnight at 37° C., 5% CO2 in DMEM complete (Gibco) in order to achieve confluence. After the incubation medium was aspirated off of the Caco-2 monolayers, tissues were then washed with 200 μL of warmed PBS solution, and subsequently 190 μL of pre-warmed growth medium was added to each well. Compounds of interest were diluted at a 20× concentration in growth medium containing 2% DMSO, and 10 μL of compound solutions were added to respective wells in triplicate. Compounds where incubated overnight at 37° C., 5% CO2. 2-(1′H-indole-3′-carbonyl)-thiazole-4-carboxylic acid methyl ester (ITE) was used as the positive control for AhR activation at 1 and 100 μM concentrations. At the end of the incubation, medium was aspirated off of the Caco-2 cells, and the cells washed with 100 μL of cold PBS solution. RNA was extracted via the TaqMan™ Gene Expression Cells-to-CT™ Kit (ThermoFisher) according to the manufacturers protocol. The QuantStudio 6 Flex (Applied Biosciences) was used to analyze mRNA levels of CYP1A1 using GAPDH as the endogenous control. TaqMan™ probe sets for both genes were acquired from ThermoFisher. Samples were run in triplicate and data was analyzed using the QuantStudio software and reported as linear (Table 1) and log 2(ΔΔCT) values. Statistical analysis was performed using a two-tailed t-test comparing CYP1A1 levels in the presence of each individual compound to the vehicle negative control.
# naïve CD4+ T cells = assay: Human regulatory T cell differentiation assay; type: cell-based; details: 6 days
# Description: Peripheral blood mononuclear cells (PBMCs) from whole blood donated by health volunteers were separated by Ficoll-Paque gradient centrifugation and naïve CD4^+ T cells were subsequently isolated using magnet beads (EasySep™ Human Naïve CD4^+ T Cell Isolation Kit, Cambridge, MA). For regulatory T cell (Treg) differentiation assay, naïve CD4^+ T cells were cultured (1-10×10^4 cells) in CTS OpTmizer medium for 6 days and stimulated with 5 ng/ml TGF-β, 100 U/ml IL-2, and ImmunoCult™ Human […] T Cell Activator; Stemcell #10990) with/without our Compounds. Cell viability was determined using a viability dye (eBioscience Fixable Viability Dye eFluor 780: ThermoFisher 65-0865-14) at 1:500 dilution. The cells were gated for Treg, defined as Live, CD11c^−, CD14^−, CD19^−, CD8^−, CD4^+, CD3^+, CD25^+, FOXP3^+. Percent (%) Tregs were calculated as percentage of CD4^+, CD25^+, FOXP3^+ cells over total CD4 T cells. Statistical analysis was performed with GraphPad Prism Software Using One-Way ANOVA.
compound,measurement,setting,value
"O=C(O)c1cc(/N=N/c2ccc(O)c(C(=O)O)c2)ccc1O [olsalazine, reference compound]",colon weight per length (FIG. 3B),[1],significantly increased the colon weight per length
"CC(O)CC(=O)O (stereo not drawn) [beta-hydroxybutyric acid, β-hydroxybutyric acid]",IL1β % DMSO control,[2],− ((−) >110% DMSO)
same,IL6 % DMSO control,[2],= ((=) 90%> <110% DMSO)
same,TNFα % of DMSO control,[2],− ((−) >110% DMSO)
same,% IL-8 (Vehicle + LPS = 100%),neutrophil; 200.0 μM,− (− = >90% Vehicle)
same,% MIP-1α (Vehicle + LPS = 100%),neutrophil; 200.0 μM,− (− = >90% Vehicle)
same,% MIP-1β (DMSO + LPS = 100%),neutrophil; 200.0 μM,+ (+ = <90% Vehicle)
same,% IL-8 (Vehicle + LPS = 100%),neutrophil; 2000.0 μM,+ (+ = <90% Vehicle)
same,% MIP-1α (Vehicle + LPS = 100%),neutrophil; 2000.0 μM,++ (++ = <70%Vehicle)
same,% MIP-1β (DMSO + LPS = 100%),neutrophil; 2000.0 μM,+ (+ = <90% Vehicle)
same,% Change in TEER from DMSO,Caco-2 colonocytes; 200 μM + cytokines,+ (125%> <150%: +)
same,% Change in TEER from DMSO,Caco-2 colonocytes; 2 mM + cytokines,− (<125%: −)
CC(=O)O [acetate],IL1β % DMSO control,[2],= ((=) 90%> <110% DMSO)
same,IL6 % DMSO control,[2],= ((=) 90%> <110% DMSO)
same,TNFα % of DMSO control,[2],= ((=) 90%> <110% DMSO)
same,% IL-8 (Vehicle + LPS = 100%),neutrophil; 500.0 μM,− (− = >90% Vehicle)
same,% MIP-1α (Vehicle + LPS = 100%),neutrophil; 500.0 μM,+ (+ = <90% Vehicle)
same,% MIP-1β (DMSO + LPS = 100%),neutrophil; 500.0 μM,+ (+ = <90% Vehicle)
same,% IL-8 (Vehicle + LPS = 100%),neutrophil; 1000.0 μM,− (− = >90% Vehicle)
same,% MIP-1α (Vehicle + LPS = 100%),neutrophil; 1000.0 μM,++ (++ = <70%Vehicle)
same,% MIP-1β (DMSO + LPS = 100%),neutrophil; 1000.0 μM,+ (+ = <90% Vehicle)
same,% IL-8 (Vehicle + LPS = 100%),neutrophil; 3000.0 μM,+++ (+++ = <50% Vehicle)
same,% MIP-1α (Vehicle + LPS = 100%),neutrophil; 3000.0 μM,+++ (+++ = <50% Vehicle)
same,% MIP-1β (DMSO + LPS = 100%),neutrophil; 3000.0 μM,+++ (+++ = <50% Vehicle)
same,% Change in TEER from DMSO,Caco-2 colonocytes; 1 mM + cytokines,− (<125%: −)
same,% Change in TEER from DMSO,Caco-2 colonocytes; 3 mM + cytokines,− (<125%: −)
"CC(O)CCO (stereo not drawn) [butanediol, 1,3-butanediol]",IL1β % DMSO control,[2],= ((=) 90%> <110% DMSO)
same,% IL-8 (Vehicle + LPS = 100%),neutrophil; 100.0 μM,− (− = >90% Vehicle)
same,% MIP-1α (Vehicle + LPS = 100%),neutrophil; 100.0 μM,− (− = >90% Vehicle)
same,% MIP-1β (DMSO + LPS = 100%),neutrophil; 100.0 μM,+ (+ = <90% Vehicle)
same,% IL-8 (Vehicle + LPS = 100%),neutrophil; 500.0 μM,− (− = >90% Vehicle)
same,% MIP-1α (Vehicle + LPS = 100%),neutrophil; 500.0 μM,− (− = >90% Vehicle)
same,% MIP-1β (DMSO + LPS = 100%),neutrophil; 500.0 μM,+ (+ = <90% Vehicle)
same,Average CYP1A1 mRNA levels,AhR; 500.0 μM,− (- = <2-fold Vehicle)
"O=C(O[C@@H]1Cc2c(O)cc(O)cc2O[C@@H]1c1cc(O)c(O)c(O)c1)c1cc(O)c(O)c(O)c1 [EGCG, epigallocatechin gallate]",% IL-8 (Vehicle + LPS = 100%),neutrophil; 0.1 μM,− (− = >90% Vehicle)
same,% MIP-1α (Vehicle + LPS = 100%),neutrophil; 0.1 μM,− (− = >90% Vehicle)
same,% MIP-1β (DMSO + LPS = 100%),neutrophil; 0.1 μM,− (− = >90% Vehicle)
same,% IL-8 (Vehicle + LPS = 100%),neutrophil; 1.0 μM,− (− = >90% Vehicle)
same,% MIP-1α (Vehicle + LPS = 100%),neutrophil; 1.0 μM,− (− = >90% Vehicle)
same,% MIP-1β (DMSO + LPS = 100%),neutrophil; 1.0 μM,− (− = >90% Vehicle)
same,Average CYP1A1 mRNA levels,AhR; 0.1 μM,− (- = <2-fold Vehicle)
same,Average CYP1A1 mRNA levels,AhR; 1.0 μM,− (- = <2-fold Vehicle)
same,% Change in TEER from DMSO,Caco-2 colonocytes; 100 nM + cytokines,− (<125%: −)
same,% Change in TEER from DMSO,Caco-2 colonocytes; 1 μM + cytokines,− (<125%: −)
same,Cell viability % DMSO,naïve CD4+ T cells; 100 nM,= (90%> <110%: =)
same,Treg induction % DMSO,naïve CD4+ T cells; 100 nM,= (90%> <110%: =)
same,Cell viability % DMSO,naïve CD4+ T cells; 1 uM,= (90%> <110%: =)
same,Treg induction % DMSO,naïve CD4+ T cells; 1 uM,= (90%> <110%: =)
